These results are taken from ChEMBL document CHEMBL1158467, “In vitro intrinsic clearance-based optimization of N3-phenylpyrazinones as corticotropin-releasing factor-1 (CRF1) receptor antagonists” (J Med Chem, 2009).

The source made the active and inactive calls. No cut-off for these calls is given here.

The test system of data set [1] is Rattus norvegicus. The data set can be described thus: Ex vivo receptor occupancy of CRF1 receptor in Sprague-Dawley rat brain at 1 mg/kg, po after 20 mins by autoradiography relative to [125I-tyrosine]sauvagine. The format is functional.
The subject of data set [2] is Rattus norvegicus. The data set can be described thus: Total plasma concentration in Sprague-Dawley rat at 10 mg/kg, po. The format is ADME, organism-based. Also noted: dose 10 mg/kg, route oral. As to conditions: in vivo.
Data set [3] in a line: Volume of distribution at steady state in Sprague-Dawley rat 2 mg/kg, iv within 0.17 to 24 hrs. The format is ADME, organism-based. On the set-up: dose 2 mg/kg, route intravenous. Particulars: in vivo, read-out: Vdss.
Data set [4] concerns Rattus norvegicus. The data set can be described thus: Ex vivo receptor occupancy of CRF1 receptor in Sprague-Dawley rat brain at 3 mg/kg, po after 20 mins by autoradiography relative to [125I-tyrosine]sauvagine. The format is functional.
Data set [5] deals with Rattus norvegicus. Briefly: Anxiolytic activity in Sprague-Dawley rat at 1 mg/kg, po assessed as decrease in exit latency after 60 mins by defensive withdrawal test relative to control. The format is functional.
In data set [6] the test system is Rattus norvegicus. The data set can be described thus: Anxiolytic activity in Sprague-Dawley rat at 10 mg/kg, po assessed as decrease in exit latency after 60 mins by defensive withdrawal test relative to control. The format is functional. Also noted: scale not given: the % may be the effect or the level left.
A short description of data set [7]: AUC in Sprague-Dawley rat at 10 mg/kg, po dosed as aqueous suspension of 1% polysorbate 80 in 0.5% methylcellulose within 0.25 to 24 hrs. On the set-up: time 0.25-24 hr, dose 10 mg/kg, route oral. As to conditions: in vivo. The format is ADME, organism-based.
Data set [8] concerns Rattus norvegicus. Briefly: Ex vivo receptor occupancy of CRF1 receptor in Sprague-Dawley rat brain at 10 mg/kg, po after 20 mins by autoradiography relative to [125I-tyrosine]sauvagine. The format is functional.
A short description of data set [9]: Oral bioavailability in Sprague-Dawley rat at 10 mg/kg dosed as aqueous suspension of 1% polysorbate 80 in 0.5% methylcellulose within 0.25 to 24 hrs. The format is ADME, organism-based. As to conditions: in vivo.
Data set [10] can be described thus: Half life in Sprague-Dawley rat 2 mg/kg, iv within 0.17 to 24 hrs. The format is ADME, organism-based. On the set-up: dose 2 mg/kg, route intravenous. As to conditions: in vivo.
The nature of data set [11]: Cmax in Sprague-Dawley rat at 10 mg/kg, po dosed as aqueous suspension of 1% polysorbate 80 in 0.5% methylcellulose within 0.25 to 24 hrs. The format is ADME, organism-based. On the set-up: dose 10 mg/kg, route oral. As to conditions: in vivo.
Data set [12] in a line: Fraction unbound in Sprague-Dawley rat plasma at 10 mg/kg, po after 3 hrs by equilibrium dialysis. The format is ADME, organism-based. On the set-up: dose 10 mg/kg, route oral. Background: In equilibrium dialysis only unbound substance equilibrates across the membrane.
Data set [13] concerns Rattus norvegicus. Briefly: Plasma free concentration in Sprague-Dawley rat at 10 mg/kg, po. The format is ADME, organism-based. Particulars: in vivo. On the set-up: dose 10 mg/kg, route oral.
The nature of data set [14]: Clearance in Sprague-Dawley rat 2 mg/kg, iv within 0.17 to 24 hrs. The format is ADME, organism-based. On the set-up: dose 2 mg/kg, route intravenous. Particulars: in vivo.
Data set [15] can be described thus: Intrinsic clearance in human liver microsomes at 1 uM. The format is ADME, Microsome. A general note: Liver microsomes are vesicles of endoplasmic reticulum, rich in cytochrome P450 enzymes.
Data set [16] addresses T1, Corticotropin-releasing factor receptor 1 (Rattus norvegicus, UniProt P35353).
T1 sequence (P35353 whole entry): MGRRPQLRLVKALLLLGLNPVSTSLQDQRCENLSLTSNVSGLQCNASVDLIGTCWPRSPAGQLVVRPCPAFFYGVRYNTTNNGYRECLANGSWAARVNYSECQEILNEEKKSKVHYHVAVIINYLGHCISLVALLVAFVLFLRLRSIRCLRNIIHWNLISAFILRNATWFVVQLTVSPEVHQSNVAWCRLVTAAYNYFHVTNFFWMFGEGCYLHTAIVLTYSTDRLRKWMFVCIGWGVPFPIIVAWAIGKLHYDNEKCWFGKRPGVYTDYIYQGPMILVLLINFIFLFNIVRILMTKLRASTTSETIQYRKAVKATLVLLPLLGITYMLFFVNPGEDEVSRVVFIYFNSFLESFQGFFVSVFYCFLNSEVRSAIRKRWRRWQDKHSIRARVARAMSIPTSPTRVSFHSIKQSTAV
Briefly: Displacement of [125I]ovine-CRF from CRF1 receptor in rat frontal cortex by rapid filtration technique. The format is tissue-based. (Loss of bound radioactivity is the signal in a displacement assay; it reports binding, not function.)

In data set [17] the test system is Rattus norvegicus. The data set can be described thus: Anxiolytic activity in Sprague-Dawley rat at 3 mg/kg, po assessed as decrease in exit latency after 60 mins by defensive withdrawal test relative to control. The format is functional.

As for `C[C@H](C1CC1)n1cc(Cl)nc(Nc2c(Cl)cc(C(F)(F)F)cc2Cl)c1=O`, the result in the data set with Rattus norvegicus [1], in the data set on Rattus norvegicus [4], in the data set on Rattus norvegicus [5] and in the data set on Rattus norvegicus [17] was inactive. The compound also showed a concentration with Rattus norvegicus [2] of 2000 nM. Besides, the Vd in data set [3] is 24 L/kg. Also, the Activity in the data set with Rattus norvegicus [6] is 68%; in the data set on Rattus norvegicus [8], 81%. The compound further came in with an area under the curve (AUC) in data set [7] of 7.35 µM·h. The bioavailability in [9] worked out at 37%. Further, the half-life in data set [10] is 17 h. Moreover, the highest level in [11] (Cmax) was 490 nM. For the same compound, in [12], the fraction unbound at 3 h is 0.0033. Further, the “Cp(f)” value in the data set with Rattus norvegicus [13] is recorded as 6.7 nM. In [14], this compound yielded a clearance of 21 mL/min/kg. The compound further had an intrinsic clearance (CLint scaled) at 1 µM in data set [15] of 10 mL/min/kg. The concentration for half-maximal inhibition (IC50) in data set [16] stood at 4.1 nM.

In the case of `C[C@H](C1CC1)n1cc(Cl)nc(Nc2c(Cl)cc(Cl)cc2C#N)c1=O`, the IC50 in data set [16] came out at 18 nM.

Take `CC[C@H](COC)n1cc(Cl)nc(Nc2c(Cl)cc(C(F)(F)F)cc2Cl)c1=O`: the CLint scaled at 1 µM in data set [15] amounted to 150 mL/min/kg. This compound gave a concentration for half-maximal inhibition (IC50) in data set [16] of 2.3 nM.

Take `C[C@H](C1CC1)n1cc(C#N)nc(Nc2c(Cl)cc(C(F)(F)F)cc2Cl)c1=O`: in the data set with Rattus norvegicus [2], the concentration was found to be 1400 nM. Moreover, the Activity in the data set on Rattus norvegicus [8] was 68%. In data set [12], this compound displayed a fraction unbound at 3 h of 0.011. Moreover, the “Cp(f)” value in the data set with Rattus norvegicus [13] worked out at 16 nM. The intrinsic metabolic clearance (CLint scaled) at 1 µM in data set [15] was 13 mL/min/kg. Besides, the IC50 in data set [16] was determined as 7.5 nM.

Compound `CC[C@H](C1CC1)n1cc(Cl)nc(Nc2c(Cl)cc(OC(F)(F)F)cc2Cl)c1=O` returned a CLint scaled at 1 µM in data set [15] of 77 mL/min/kg. Besides, the IC50 in data set [16] came to 1.8 nM.

The compound `Cc1cc(Cl)cc(Cl)c1Nc1nc(Cl)cn([C@H](C)C2CC2)c1=O` registered a CLint scaled at 1 µM in data set [15] of 44 mL/min/kg. The same compound registered a concentration for half-maximal inhibition (IC50) in data set [16] of 1.2 nM.

On to `COC[C@@H](C1CC1)n1cc(Cl)nc(Nc2c(Cl)cc(C(F)(F)F)cc2Cl)c1=O`, for which the intrinsic metabolic clearance (CLint scaled) at 1 µM in data set [15] worked out at 64 mL/min/kg. This compound also yielded a 50% inhibitory concentration (IC50) in data set [16] of 1.6 nM.

In [15], `CC[C@H](C1CC1)n1cc(Cl)nc(Nc2c(Cl)cc(C(F)(F)F)cc2Cl)c1=O` had an intrinsic clearance (CLint scaled) at 1 µM of 89 mL/min/kg. The IC50 in data set [16] stood at 1.3 nM.

For `C[C@H](C1CC1)n1cc(Cl)nc(Nc2c(Cl)cc(OC(F)F)cc2Cl)c1=O`, the CLint scaled at 1 µM in [15] worked out at 22 mL/min/kg. The same compound came in with a 50% inhibitory concentration (IC50) in [16] of 0.46 nM.

In the case of `CC[C@H](COC)n1cc(Cl)nc(Nc2c(Cl)cc(C#N)cc2Cl)c1=O`, the CLint scaled at 1 µM in data set [15] was determined as 210 mL/min/kg. Also, in data set [16], the concentration for half-maximal inhibition (IC50) worked out at 1.7 nM.

`C[C@H](C1CC1)n1cc(Cl)nc(Nc2c(Cl)cc(Cl)cc2Cl)c1=O`: in [16], the half-maximal inhibitory concentration (IC50) amounted to 0.91 nM.

For `COc1cc(Cl)c(Nc2nc(Cl)cn([C@H](C)C3CC3)c2=O)c(Cl)c1`, the CLint scaled at 1 µM in data set [15] came to 130 mL/min/kg.

As for `Cc1cc(C#N)cc(Cl)c1Nc1nc(Cl)cn([C@H](C)C2CC2)c1=O`, the concentration in the data set with Rattus norvegicus [2] was 250 nM. The compound further came in with an Activity in the data set on Rattus norvegicus [8] of 34%. In [12], this compound returned a fraction unbound at 3 h of 0.044. For the same compound, in the data set with Rattus norvegicus [13], the “Cp(f)” value is on record as 11 nM. The CLint scaled at 1 µM in data set [15] turned out to be 38 mL/min/kg. The compound also yielded an IC50 in data set [16] of 2.9 nM.

As for `CC[C@H](C1CC1)n1cc(Cl)nc(Nc2c(C)cc(Cl)cc2Cl)c1=O`, the intrinsic clearance (CLint scaled) at 1 µM in data set [15] was 210 mL/min/kg.

As for `CC[C@H](C1CC1)n1cc(Cl)nc(Nc2c(Cl)cc(OC)cc2Cl)c1=O`, in [15], the intrinsic metabolic clearance (CLint scaled) at 1 µM was 400 mL/min/kg. This compound yielded an IC50 in [16] of 0.44 nM.

`C[C@H](C1CC1)n1cc(Cl)nc(Nc2c(Cl)cc(OC(F)(F)F)cc2Cl)c1=O` had a CLint scaled at 1 µM in data set [15] of 30 mL/min/kg. For the same compound, the IC50 in [16] was 6.5 nM.

`CCCC(CCC)n1cc(Cl)nc(Nc2c(Cl)cc(C(F)(F)F)cc2Cl)c1=O`: the intrinsic clearance (CLint scaled) at 1 µM in data set [15] was found to be 110 mL/min/kg. In data set [16], the concentration for half-maximal inhibition (IC50) is 3.7 nM.

`CC[C@H](C1CC1)n1cc(Cl)nc(Nc2c(Cl)cc(C#N)cc2Cl)c1=O` displayed a CLint scaled at 1 µM in [15] of 160 mL/min/kg.

For `CCOc1cc(C)c(Nc2nc(Cl)cn([C@H](C)C3CC3)c2=O)cc1C`, the intrinsic clearance (CLint scaled) at 1 µM in data set [15] was 32 mL/min/kg. This compound also registered an IC50 in data set [16] of 1.2 nM.

Broadly, the AUC is concentration integrated over time. Usually bioavailability stands for dose-corrected exposure relative to a reference, in per cent. The term half-life denotes the time in which the quantity being followed falls by half. A word on the Cmax: it is the peak of the concentration-time curve. The term fraction unbound denotes free concentration divided by total concentration. As a reminder, the clearance is the rate of elimination divided by the concentration. A word on the CLint scaled: it is the rate of metabolic loss divided by the concentration. The term IC50 denotes the concentration needed to halve the response being measured.
